According to US7071294B1, “Tumor antigen protein art-1 and tumor antigen peptide thereof” (Green Peptide Co., Ltd., priority 1998, dated 2006):
Where no end group is shown, it is not given here.

Key:
KG-CTL = test: IFN-γ production by KG-CTL in response to HLA-A2402-transfected COS-7 cells pulsed with peptide (ELISA); type: cell-based, human; settings: COS-7 transfected with HLA-A2402 cDNA
Experimental: A surgical sample taken from a patient with lung cancer was cut into small pieces, and then stirred in a culture fluid containing collagenase and DNAse to suspend cells. The cell suspension was centrifuged using Ficoll Conray solution to separate lymphocytes. The lymphocytes were cultured on 24-well plate in a culture medium consisting of 45% RPMI-1640, 45% AIM-V (GIBCO BRL), and 10% FCS supplemented with 100 U/ml interleukin-2 and 0.1 mM NEAA (GIBCO BRL) (hereinafter referred to as lymphocyte medium). During the first two days of the cultivation, an anti-CD3 antibody NU-T3 (Nichirei Corporation) was added to the culture medium at 1 μg/ml. The cultivation was continued for more than 30 days, and a CTL line that is reactive with some kinds of HLA-A24- or HLA-A2-positive cancer cell lines was established. The established CTL line was named KG-CTL and used in subsequent procedures. The reactivity of KG-CTL to each cancer cell line was examined by inoculating the cancer cell line into 96-well plate at 1×10^4, adding KG-CTL at 1×10^5/well thereto on the following day, culturing the same for additional 18 hours, and then determining amount of interferon-γ (IFN-γ) produced by KG-CTL in the recovered culture medium. Measurement of IFN-γ was conducted by enzyme immunoassay (ELISA). […] Anti-human IFN-γ rabbit polyclonal antibody as detection antibody was then allowed to bind, and after binding to an anti-rabbit immunoglobulin goat antibody labeled with […] (Amersham), the chromophore was developed using Peroxidase Chromophoric Kit T (Sumitomo Bakelite), followed by measuring absorbance at 405 nm. The absorbance was compared with that obtained with standard IFN-γ to determine the amount of IFN-γ in the sample. […] The cells were then cultured with 2×10^4 KG-CTLs for 18 hours, and the amount of IFN-γ produced by KG-CTL in the culture supernatant was determined by the ELISA method, thus identifying tumor antigen peptides.

[1] = system: peripheral blood lymphocytes; test: CTL induction from peripheral blood lymphocytes by tumor antigen peptides; IFN-γ produced in response to MT-2 target cells (ELISA); type: cell-based, human; settings: for IFN-γ in Supernatant: HLA-A24 heterozygous healthy donor lymphocytes stimulated three times with 10 μM peptide, 8×10^4 lymphocytes vs 1×10^4 MT-2 target cells, no peptide gave 3; for IFN-γ production by peptide-stimulated peripheral blood lymphocytes in response to the target cell (CTL induction): MT-2 target cells, not seen with no stimulation
Experimental: Using the Ficoll method, lymphocytes were separated from peripheral blood of healthy donors who were heterozygous for A24 in the HLA-A locus. The lymphocytes were placed into wells of a 24-well plate at 2×10^6 cells/well, and cultured in the lymphocyte medium. The above tumor antigen peptides were added to the culture medium at 10 μM to stimulate the peripheral blood lymphocytes. One week later, the above tumor antigen peptides were added to attain 10 μM together with about 2×10^5 cells of X-radiated (50 Gy) peripheral blood lymphocytes for the second stimulation. Additional one week later, the third stimulation was conducted in a similar manner. Cultured lymphocytes were harvested one week after the third stimulation. Using as target cells (1×10^4 cells) MT-2, which is an HLA-A2402-positive leukemia cell line expressing the tumor antigen peptide, the amount of IFN-γ in the culture medium produced by the above lymphocytes (8×10^4 cells) in response to the target cells was measured in accordance with ELISA method.

[2] = target: T1, HLA-A2402 expressed on COS-7 cells transfected with a recombinant plasmid for HLA-A2402 cDNA (human, UniProt P04439-2 25-302 at identity 0.92)); test: cell-based or functional assay
T1 MHC heavy: not shown

For GFDCANESVL [170–179], the “Reactivity of KG-CTLs compared to cells pulsed with no peptide” value (KG-CTL) was “reacted more strongly”, the “IFN-γ in Supernatant” value [1] was 237 pg/mL and the “IFN-γ production by peptide-stimulated peripheral blood lymphocytes in response to the target cell (CTL induction)” value (“IFN-γ production” for short) [1] was “produced IFN-γ in response to the target cell”.

EYCLKFTKL [188–196] was tested, and the “Reactivity of KG-CTLs compared to cells pulsed with no peptide” value (KG-CTL) was “reacted more strongly”, the “IFN-γ in Supernatant” value [1] was 147 pg/mL and the “IFN-γ production” value [1] was “produced IFN-γ in response to the target cell”.

With LYQAVATI [158–165] the “Reactivity of KG-CTLs compared to cells pulsed with no peptide” value (KG-CTL) was “reacted more strongly”, the “IFN-γ in Supernatant” value [1] was 330 pg/mL and the “IFN-γ production” value [1] was “produced IFN-γ in response to the target cell”.

In the case of GFDCANESVL, the “Amount of IFN-γ produced by KG-CTL in the response” value (“Amount of IFN-γ produced by KG-CTL” for short) [2] is reported as 458 pg/mL.

EYCLKFTKL was tested, and the “Amount of IFN-γ produced by KG-CTL” value [2] was 399 pg/mL.

LYQAVATI was tested, and the “Amount of IFN-γ produced by KG-CTL” value [2] was 289 pg/mL.
